1 molecule from patent US20150037375A1, “DOPING AGENTS AND POLYMERIC COMPOSITIONS THEREOF FOR CONTROLLED DRUG DELIVERY” (TRUSTEES OF BOSTON UNIVERSITY ET AL, priority 2011, published 2015) can be followed below.

Values after ≈ are worked out from the molar mass of the structure shown.

Series [1] is described as follows: Lactone form of SN-38 released from meshes. Particulars: control, bolus of SN-38 added to pH 6.4 PBS for an hour. The procedure:
An additional release study was performed to determine if the active form of SN-38 was preserved within electrospun meshes.

Series [2] concerns HT-29 colorectal cancer cells. The experiment in a line: In vitro cytotoxicity (MTS/MTT) of drug-loaded meshes, HT-29 cells.
Procedure: (§1) The meshes contained either 0.01, 0.1, or 1.0 w/w % drug (SN38 or CPT-11). The camptothecin release from these meshes was tested using a cell viability assay following 24 hour treatments with camptothecin-loaded or unloaded meshes. […] Individual camptothecin-loaded and unloaded meshes were placed in permeable filter supports (Polyester membrane insert, 3.0 μm pore size; Corning Incorporated, Corning, N.Y.) and maintained in SPM. Medium was changed periodically to ensure continued drug release. […] At designated time points, subconfluent cells were harvested and seeded on 12-well plates at 30,000 cells/well in SPM. After 24 hours, filter supports and meshes were transferred from holding wells to the wells containing tumor cells in 2 mL of fresh SPM. After 24 hours of co-incubation with tumor cells, films were returned to holding wells in fresh SPM until the subsequent time point. Five days after treatment, tumor cell viability was measured using a colorimetric MTT (3-(4,5-dimethyl-2-thiazolyl)-2,5-diphenyltetrazolium bromide) cell proliferation assay (Sigma, St. Louis, Mo.). Cell viability was calculated as the percentage of the positive control absorbance for each cell line at each time point.
Series [3] deals with Lewis Lung Carcinoma (LLC) cells. The experiment in a line: Cell viability (MTT) after 24 hour treatments with drug-loaded meshes, LLC cells.
Procedure: as §1

For orientation: IC50 means the concentration that inhibits the measured activity by half. Higher therefore signals weaker potency in that assay. Turning to `CCc1c2c(nc3ccc(O)cc13)-c1cc3c(c(=O)n1C2)COC(=O)[C@]3(O)CC` [SN-38, 7-ethyl-10-hydroxycamptothecin], in series [1], the “SN-38 remaining in the active lactone form” value was found to be 73%. This molecule returned an IC50 in series [2] of 3.4 ng/mL (≈ 8.66 nM). The IC-50 entry in series [3] is “≈ 8 ng/mL”.
